Laboratory results: publication PMC9386376, “Discovery of spirooxindole-derived small-molecule compounds as novel HDAC/MDM2 dual inhibitors and investigation of their anticancer activity” (Frontiers in Oncology, 2022)
“Also recorded” adds a separate entry of the source.

Legend:
MCF-7 cells = assay: TUNEL staining apoptosis assay; format: cell-based, human; conditions: MCF-7, 0.5 μM, 24 h, compared with SAHA and Nutlin-3
Protocol: It was reported that the inactivation of HDAC and/or MDM2 could increase the percentage of apoptosis cells ([85]–[87]). Therefore, three methods were applied to assess the effect of MDM2-HDAC dual inhibitor 11b on the apoptosis of MCF-7 cells. […] Subsequently, the annexin V-FITC/propidium iodide (PI) double staining method was carried out to quantitatively detect the effect of compound 11b on cell apoptosis (Figure 9B).
TUNEL assay was performed using in situ apoptosis detection kit (Promega, USA), according to the manufacturer’s protocols. […] After 24 h incubation, cells were plated onto the slides, fixed in 4% paraformaldehyde in PBS for 25 min, and then washed with PBS twice. After that, the cells were incubated in TUNEL reaction mixture at 37°C for 60 min. Then nuclei were counterstained with DAPI, and cells were checked under an immunofluorescent confocal microscopy (Olympus FV1000).

MDM2, p53 in MCF-7 cells = assay: Western blot, MDM2 and p53 protein level; format: cell-based, human; conditions: MCF-7, 24 h incubation
Protocol: The cells were collected and washed with cold PBS twice, then added the protease and phosphatase inhibitors contained lysis buffer. Total cell lysates were prepared in lysis RIPA buffer (Invitrogen, CA, USA) on ice for 30 min, followed by centrifugation at 12000 rpm for 10 min at 4°C. After collecting supernatant, protein concentration was determined by a BCA protein assay. The total proteins were loaded into the 10%-15% SDS-PAGE gel and separated by sodium dodecyl sulfate polyacrylamide gel electrophoresis (PAGE). After electrophoresis, the protein was transferred to the PVDF membranes and rinsed three times in PBST buffer for 10 min each time, then sealed with 5% BSA Buffer for 1h. The membranes were incubated at 4°C for 24 h with primary antibodies and washed with TBST three times. Then incubated at room temperature for 2 h with secondary antibodies (1:10,000). The incubated PVDF membranes were taken out and rinsed with TBST three times. The protein bands were visualized through enhanced chemiluminescence (ECL) WB substrate (Millipore, MA, USA) and analyzed by ChemiScope. The antibodies including p53, MDM2, H4, and GAPDH were purchased from Abcam (Cambridge, MA, USA).

HDAC10 = biological target: T1, HDAC10 (Homo sapiens, UniProt Q969S8); assay: HDAC isoform selectivity, HDAC10; format: biochemical; conditions: HDAC subtype panel
T1 sequence (Q969S8 1-669): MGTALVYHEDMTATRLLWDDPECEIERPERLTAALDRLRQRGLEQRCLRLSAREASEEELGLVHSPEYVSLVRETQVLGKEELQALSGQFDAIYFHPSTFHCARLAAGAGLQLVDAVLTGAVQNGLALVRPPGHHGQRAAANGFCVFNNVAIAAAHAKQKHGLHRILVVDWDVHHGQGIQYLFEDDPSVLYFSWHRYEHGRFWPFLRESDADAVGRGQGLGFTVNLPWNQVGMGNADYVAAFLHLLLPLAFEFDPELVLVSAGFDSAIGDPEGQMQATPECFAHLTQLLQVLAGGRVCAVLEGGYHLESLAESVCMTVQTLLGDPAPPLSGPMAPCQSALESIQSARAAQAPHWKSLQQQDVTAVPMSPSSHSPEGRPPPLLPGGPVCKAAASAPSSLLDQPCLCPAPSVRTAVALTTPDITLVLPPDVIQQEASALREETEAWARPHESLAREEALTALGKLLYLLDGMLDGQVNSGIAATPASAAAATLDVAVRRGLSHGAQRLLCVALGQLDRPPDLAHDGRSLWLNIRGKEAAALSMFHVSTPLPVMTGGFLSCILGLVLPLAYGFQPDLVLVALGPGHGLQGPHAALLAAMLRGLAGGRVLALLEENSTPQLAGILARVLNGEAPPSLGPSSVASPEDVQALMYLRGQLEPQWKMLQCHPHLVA

HCT116 cells = assay: MTT antiproliferative assay, HCT116; conditions: Homo sapiens, HCT-116, read-out: IC50 HCT116
Protocol: The cytotoxicity assay was performed with MTT method as previously described ([73], [88], [89]).

HDAC11 = biological target: T2, HDAC11 (Homo sapiens, UniProt Q96DB2); assay: HDAC isoform selectivity, HDAC11; format: biochemical; conditions: HDAC subtype panel
T2 sequence (Q96DB2 1-347): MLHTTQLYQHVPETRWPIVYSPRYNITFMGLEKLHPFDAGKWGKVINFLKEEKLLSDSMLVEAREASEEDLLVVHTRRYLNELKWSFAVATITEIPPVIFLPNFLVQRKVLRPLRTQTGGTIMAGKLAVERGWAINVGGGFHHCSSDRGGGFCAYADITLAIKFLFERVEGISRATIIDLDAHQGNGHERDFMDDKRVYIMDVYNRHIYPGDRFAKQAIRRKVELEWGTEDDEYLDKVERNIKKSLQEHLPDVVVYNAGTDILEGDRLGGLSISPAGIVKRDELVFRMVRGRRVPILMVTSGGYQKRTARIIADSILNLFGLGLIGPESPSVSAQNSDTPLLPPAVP

HDAC1 = HDAC1 (Homo sapiens, UniProt Q13547); assay: HTRF enzyme inhibition assay, HDAC1
Sequence of HDAC1 (Q13547 whole entry): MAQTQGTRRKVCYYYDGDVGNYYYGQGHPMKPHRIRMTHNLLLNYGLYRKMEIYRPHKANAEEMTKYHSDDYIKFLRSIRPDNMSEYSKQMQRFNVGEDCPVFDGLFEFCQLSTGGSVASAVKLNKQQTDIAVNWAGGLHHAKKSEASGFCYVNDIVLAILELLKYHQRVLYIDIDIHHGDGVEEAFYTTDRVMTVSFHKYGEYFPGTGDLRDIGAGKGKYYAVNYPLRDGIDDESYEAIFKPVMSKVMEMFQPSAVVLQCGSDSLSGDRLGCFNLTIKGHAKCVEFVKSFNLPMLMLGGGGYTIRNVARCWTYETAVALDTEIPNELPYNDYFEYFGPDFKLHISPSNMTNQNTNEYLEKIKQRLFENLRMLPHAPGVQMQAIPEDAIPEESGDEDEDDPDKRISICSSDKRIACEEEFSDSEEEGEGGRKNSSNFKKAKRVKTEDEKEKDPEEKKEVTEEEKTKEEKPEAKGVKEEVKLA
Protocol: The data obtained were processed by the ratio method, and the inhibition rates of MDM2 and HDAC1 were calculated. The detailed experimental procedures are according to the manufacturer’s protocols.

O=C(CCCCCCC(=O)N1CCC(C(=O)Nc2ccc([C@@H]3[C@H]4CSCN4[C@]4(C(=O)Nc5cc(Cl)ccc54)[C@H]3C(=O)c3ccccc3)cc2)CC1)NO [compound 11b, N-(4-((3R,6'S,7'R,7a'S)-6'-benzoyl-6-chloro-2-oxo-1',6',7',7a'-tetrahydro-3'H-spiro[indoline-3,5'-pyrrolo[1,2-c]thiazol]-7'-yl)phenyl)-1-(8-(hydroxyamino)-8-oxooctanoyl)piperidine-4-carboxamide]
apoptotic positive cells by TUNEL staining (MCF-7 cells): significantly higher number of apoptotic positive cells | protein level of MDM2 and p53 (western blot) (MDM2, p53 in MCF-7 cells): up-regulating the expression of p53; also recorded: increased the expression of p53; also recorded: dose-dependently increased the protein level of MDM2 as well as p53 | IC50 (HDAC10): 1490 ± 37 nM | IC50 (HCT116 cells): 2540 ± 1070 nM | IC50 (HDAC11): > 10000 nM | IC50 (HDAC1): 58 ± 5 nM | inhibition at 1 µM (HDAC1; read-out: % enzyme inhibition HDAC): 79%
